How the values were obtained:
Assay type in all cases: cell-based
[1] = test system: homogeneous human amniotic fluid clonal stem cells; assay: In vitro osteocyte differentiation with pharmacological agent screening; conditions: results not shown
[2] = test system: homogeneous human amniotic fluid clonal stem cells; assay: In vitro chondrocyte differentiation with pharmacological agent screening; conditions: 21 days; results not shown
[3] = test system: homogeneous human amniotic fluid clonal stem cells; assay: In vitro neural differentiation with pharmacological agent screening; conditions: neural induction 21 days; results not shown

Row | Structure (SMILES) | effect on bone development / osteogenic differentiation [1] | effect on chondrogenic differentiation [2] | effect on neural / neurological development [3]
1 | O=S(=O)([O-])[O-].[Mg+2] [MgSO4] | minimal or no effect | minimal or no effect | minimal or no effect
2 | CCCC(CCC)C(=O)O [VPA, valproic acid] | does not affect | does not affect | decreases
